Measured values as given in patent US6750199B2, “Antimicrobial sulfonamide derivatives of lipopeptide antibiotics” (Micrologix Biotech Inc., priority 2000, dated 2004).
In brackets after ≈: the same amount, converted by molar mass. Like-named read-outs stand apart in the source and are kept apart here. Starred links: 1 amine or outer side, 2 acyl side, 3 side chain; linkers in the order of their positions; H or OH if unused. Positions of bridges follow the written chain, without caps; N, C: chain ends. Non-standard residues stand in square brackets, D forms with d. Residues, ends and D or L forms follow the SMILES beside them. ξ: configuration not given here. *: point of attachment. Hexadecanesulfonyl = CCCCCCCCCCCCCCCCS(=O)(=O)*; ξAbu(βξ-NH2) = CC(N[*:3])C(N[*:1])C(=O)[*:2]; ξAsp(βξ-Me) = CC(C(=O)O)C(N)C(=O)O; ξAbu(3ξ-NH2) = CC(N)C(N)C(=O)O; X1 = CCCCCCCCCCS(=O)(=O)*; Pip = O=C(O)[CH]1CCCCN1; ξD = NC(CC(=O)O)C(=O)O; Dap = NC[CH](N)C(=O)O; ξI = CCC(C)C(N)C(=O)O; ξPip = O=C(O)C1CCCCN1; ξT = CC(O)C(N)C(=O)O; ξDap = NCC(N)C(=O)O; ξP = O=C(O)C1CCCN1

Experiments:
[1] = tested on: Staphlococcus aureus strain Smith; format: cell-based
Description: MIC values were determined by microliter serial dilution using Staphlococcus aureus strain Smith as the assay organism, which was grown in Mueller-Hinton broth with and without CaCl2.

Staphylococcus aureus = test: MIC against Staphylococcus aureus (comparison with aspartocin); format: cell-based
Description: One drop of piperdine was added to about 5.5 mg of the product from Section 5.2.4 dissolved in 2.0 mL of 2:1 mixture of dimethylsulfoxide:methanol. Monitoring by HPLC indicated the reaction was complete after 60 minutes at room temperature. The reaction was quenched by addition of 6.0 mL cooled 0.2 M ammonium phosphate at pH 7.2. The quenched reaction mixture was applied to a 0.5 g resin cartridge (ENVI-Chrom P) and eluted with a stepwise gradient of pH 7.2 phosphate-buffered aqueous acetonitrile. The product was eluted with 25% acetonitrile. Appropriate fractions were pooled and acetonitrile was removed under vacuum at room temperature. The product was desalted by adsorption onto a 0.5 g resin cartridge which was then rinsed with 10% acetonitrile, followed by 50% acetonitrile. The 50% acetonitrile eluate was evaporated to remove acetonitrile and the resulting aqueous solution freeze dried to provide about 1.5 mg of white solid. FAB-MS: m/z 1379 (M+Na)^+ was consistent with the expected structure.

Staphylococuss aureus = test: Resistance to deacylase enzyme: agar well zone diffusion bioassay of deacylase broth samples; format: cell-based; details: 9 mm well, 100 μl of sample, incubated 16 hrs. at 28° C.; for Bioassay zone dia. 16 hours: after 16 hours in deacylase broth, 200 rpm, 84° C.; for Bioassay zone dia. Zero time: zero time in deacylase broth
Description: (§1) One milligram of the hexadecylsulfonyl-L-tryptophan derivative of the core antibiotic of laspartomycin (see Section 5.4 for preparation) was added to 2 mL of deacylase broth (prepared as described in Section 5.1) and a zero time sample (0.5 mL) was removed and stored by freezing. The reaction mixture was placed on a shaker at 200 rpm and 84° C. for 16 hours. The zero and 16 hour samples were then studied by HPLC and by agar well zone diffusion assay using Staphylococuss aureus as a test organism. The same conditions were used to compare laspartomycin to enzyme deactivation. […] Under the same conditions Antibiotic A21978C and Aspartocin were completely deactivated within two hours and 16 hours, respectively.

deacylase broth = test: in vitro; format: in vitro ADME, Actinoplanes utahensis NRRL 12052
Description: (§2) The high-producing, natural variant was used in the known fermentation protocol employed (Boeck et al., 1988. J. Antibiot., 41, 1085). A stock culture of Actinoplanes utahensis NRRL 12052 variant, preserved in 20% glycerol at −70° C., was introduced into a 25×150 mm test tube containing 10 mL of a medium comprised of 2.0% sucrose, 2.0% pre-cooked oatmeal, 0.5% distiller's grain, 0.25% yeast, 0.1% K2HPO4, 0.05% KCl, 0.05% MgSO4-7H2O and 0.0002% FeSO4-7H2O in deionized water. After incubation at 30° C. for 72 hrs on a rotary shaker orbiting at 250 rpm the resulting mycelial suspension was transferred into 50 mL of PM3 medium in a 250 mL Erlenmeyer flask. The PM3 medium contained 2.0% sucrose, 1.0% peanut meal, 0.12% K2HPO4, 0.05% KH2PO4 and 0.025% MgSO4-7H2O, in tap water. The flask was incubated at a temperature of 30° C. for a period of between 60 to 90 hrs. The whole broth from this fermentation contained the deacylase enzyme.
as §1

deacylase = test: in vitro; format: in vitro ADME, Actinoplanes utahensis NRRL 12052; details: Actinoplanes utahensis, cells or culture medium
Description: as §2, §1

Which results are given for `CCCCCCCCCCCCCCCCS(=O)(=O)NC(Cc1c[nH]c2ccccc12)C(=O)NC(CC(=O)O)C(=O)NC1CNC(=O)C2CCCN2C(=O)C(C(C)CC)NC(=O)C(C(C)O)NC(=O)CNC(=O)C(CC(=O)O)NC(=O)CNC(=O)C(CC(=O)O)NC(=O)CNC(=O)C2CCCCN2C1=O` (stereo not drawn) [Compound 52] (Hexadecanesulfonyl-WD[Dap][Pip]GDGDGTIP; lactam 3-C; configuration not given here)?
MIC w CaCl2 (4 mm) [1]: 4000 µg/mL (≈ 2670 µM); MIC w/o CaCl2 [1]: 8000 to 16000 µg/mL

With `CCCCCCCCCCS(=O)(=O)NCC(=O)NC(CC(=O)O)C(=O)NC1C(=O)N2CCCCC2C(=O)NC(C(C)C(=O)O)C(=O)NC(CC(=O)O)C(=O)NCC(=O)NC(CC(=O)O)C(=O)NCC(=O)NC(C(C)N)C(=O)NC(C(C)C)C(=O)N2CCCC2C(=O)NC1C` (stereo not drawn) [Compound 58] (X1-GD[ξAbu(βξ-NH2)][Pip][ξAsp(βξ-Me)]DGDG[ξAbu(3ξ-NH2)]VP; lactam 3-C; configuration not given here) as the molecule, how does the “MIC w CaCl2 (4 mm)” value [1] read?
The value was 1000 µg/mL (≈ 737 µM).

And the “MIC w/o CaCl2” value [1]?
The value was 32000 µg/mL (≈ 23600 µM).

How did the “MIC values compared with aspartocin” value (Staphylococcus aureus) turn out when “Decanesulfonylglycyl Aspartocin [decanesulfonylglycyl derivative]” was run?
The value was “essentially the same as those for aspartocin”.

What does the source list for laspartomycin [reference compound]?
MIC w CaCl2 (4 mm) ([1]; S. aureus strain Smith, Mueller-Hinton broth, with CaCl2 (4 mm)): 2000 µg/mL; MIC w/o CaCl2 ([1]; S. aureus strain Smith, Mueller-Hinton broth, without CaCl2): 16000 µg/mL; Bioassay zone dia. 16 hours (Staphylococuss aureus): no zone; Bioassay zone dia. Zero time (Staphylococuss aureus): 15.5 mm; HPLC Peak Area zero time (deacylase broth): 100%; deactivation / degradation by the enzyme preparation (in words) (deacylase broth): complete deactivation; HPLC Peak Area 16 hours (deacylase broth; Actinoplanes utahensis, cells or culture medium, 16 h, 0.5 mg/mL): 0%

How did the “Bioassay zone dia. 16 hours” value (Staphylococuss aureus) turn out when `CCCCCCCCCCCCCCCCS(=O)(=O)N[C@@H](Cc1c[nH]c2ccccc12)C(=O)N[C@@H](CC(=O)O)C(=O)NC1CNC(=O)C2CCCN2C(=O)C(C(C)CC)NC(=O)C(C(C)O)NC(=O)CNC(=O)C(CC(=O)O)NC(=O)CNC(=O)C(CC(=O)O)NC(=O)CNC(=O)C2CCCCN2C1=O` (stereo partly drawn) [Hexadecylsulfonyl-L-Tryptophan Derivative of the Core Antibiotic of Laspartomycin] (Hexadecanesulfonyl-WD[ξDap][ξPip]G[ξD]G[ξD]G[ξT][ξI][ξP]; lactam 3-C) was run?
Its value is 12.8 mm.

And the “Bioassay zone dia. Zero time” value (Staphylococuss aureus)?
Its value is 13.7 mm.

What about the “HPLC Peak Area zero time” value (deacylase broth) of the same molecule?
Its value is 100%.

And the “deactivation / degradation by the enzyme preparation (in words)” value (deacylase broth)?
The value was “degraded at a much slower rate”.

What about the remaining at 16 h, 0.5 mg/mL (deacylase) of the same molecule?
Its remaining at 16 h, 0.5 mg/mL is 53%.

With `CCCCCCCCCCCCCCCCS(=O)(=O)NC(Cc1ccccc1)C(=O)NC(CC(=O)O)C(=O)NC1CNC(=O)C2CCCN2C(=O)C(C(C)CC)NC(=O)C(C(C)O)NC(=O)CNC(=O)C(CC(=O)O)NC(=O)CNC(=O)C(CC(=O)O)NC(=O)CNC(=O)C2CCCCN2C1=O` (stereo not drawn) [Compound 56] (Hexadecanesulfonyl-FD[Dap][Pip]GDGDGTIP; lactam 3-C; configuration not given here) as the molecule, how does the “MIC w CaCl2 (4 mm)” value [1] read?
Its value is 4000 µg/mL (≈ 2740 µM).

And the “MIC w/o CaCl2” value [1]?
Its value is 8000 µg/mL (≈ 5480 µM).

How did the “MIC w CaCl2 (4 mm)” value [1] turn out when `CCCCCCCCCCCCCCCCS(=O)(=O)NC(Cc1ccccc1)C(=O)NC(CC(=O)O)C(=O)NC1C(=O)N2CCCCC2C(=O)NC(C(C)C(=O)O)C(=O)NC(CC(=O)O)C(=O)NCC(=O)NC(CC(=O)O)C(=O)NCC(=O)NC(C(C)N)C(=O)NC(C(C)C)C(=O)N2CCCC2C(=O)NC1C` (stereo not drawn) [Compound 62] (Hexadecanesulfonyl-FD[ξAbu(βξ-NH2)][Pip][ξAsp(βξ-Me)]DGDG[ξAbu(3ξ-NH2)]VP; lactam 3-C; configuration not given here) was run?
The value was 4000 µg/mL (≈ 2610 µM).

What about the “MIC w/o CaCl2” value [1] of the same molecule?
The value was 4000 µg/mL (≈ 2610 µM).
